Reference: patent US20230021483A1, “[…] […] METHOD AND CLASSIFICATION OF PHARMACEUTICAL COMPONENTS BY USING TRANSCRIPTOMES” (National Institutes of Biomedical Innovation, Health and …, priority 2016, published 2023)

Tests used:
[1] = system: adjuvant-associated biological themes in LV, SP, LN
How it was run: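 Enrichment score S sums −log(p) over consensus themes whose names contain a pre-selected adjuvant-associated term such as "stress" or "cytokine". Consensus requires a theme in all three mice of a group, p<0.05. Themes come from TargetMine analysis of genes with eij/ei(c)>2.0, Fisher's exact test, Holm-Bonferroni-corrected.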

liver (LV) = assay: Whole organ transcriptome (GeneChip microarray) of liver 6 h after adjuvant administration: sDEGs, hierarchical clustering; format: in vivo, C57BL/6 mice; settings: i.d. administration, liver, 6 h after adjuvant

## Monophosphoryl lipid A [MPLA]
[1]; LV, ID
  IFN alpha, GO annotation line 1 of 5: 0
  IFN alpha, GO annotation line 2 of 5: 0
  IFN alpha: cellular response to interferon-alpha: 0
  IFN alpha: positive regulation of interferon-alpha production: 0
  IFN alpha: regulation of interferon-alpha production: 0
  IFN beta: cellular response to interferon-beta: 0
  IFN beta: interferon-beta production: 0
  IFN beta: positive regulation of interferon-beta production: 0
  IFN beta: regulation of interferon-beta production: 0
  IFN beta: response to interferon-beta: 0
  IFN gamma: cellular response to interferon-gamma: 0
  IFN gamma: interferon-gamma production: 0
  IFN gamma: regulation of interferon-gamma production: 0
  IFN gamma: response to interferon-gamma: 0
  NF-kappa B signaling pathway, GO annotation line 1 of 4: 0
  NF-kappa B signaling pathway, GO annotation line 2 of 4: 0
  NF-kappa B signaling pathway, GO annotation line 3 of 4: 0
  NF-kappa B signaling pathway, GO annotation line 4 of 4: 0
  TNF signaling pathway: 3.93
  adaptive immune response, GO annotation line 1 of 5: 0
  adaptive immune response, GO annotation line 2 of 5: 0
  adaptive immune response, GO annotation line 3 of 5: 0
  adaptive immune response, GO annotation line 4 of 5: 0
  adaptive immune response, GO annotation line 5 of 5: 0
  apoptosis, GO annotation line 1 of 8: 0
  apoptosis, GO annotation line 2 of 8: 0
  apoptosis, GO annotation line 3 of 8: 0
  apoptosis, GO annotation line 4 of 8: 0
  apoptosis, GO annotation line 5 of 8: 0
  apoptosis, GO annotation line 6 of 8: 0
  apoptosis, GO annotation line 7 of 8: 0
  apoptosis, GO annotation line 8 of 8: 0
  cell death, GO annotation line 1 of 9: 0
  cell death, GO annotation line 2 of 9: 0
  cell death, GO annotation line 3 of 9: 0
  cell death, GO annotation line 4 of 9: 0
  cell death, GO annotation line 5 of 9: 0
  cell death, GO annotation line 6 of 9: 0
  cell death, GO annotation line 7 of 9: 0
  cell death, GO annotation line 8 of 9: 0
  cell death, GO annotation line 9 of 9: 0
  chemokine, GO annotation line 1 of 4: 0
  chemokine, GO annotation line 2 of 4: 0
  chemokine, GO annotation line 3 of 4: 0
  chemokine, GO annotation line 4 of 4: 0
  chemotaxis, GO annotation line 1 of 11: 3.38
  chemotaxis, GO annotation line 2 of 11: 0
  chemotaxis, GO annotation line 3 of 11: 0
  chemotaxis, GO annotation line 4 of 11: 0
  chemotaxis, GO annotation line 5 of 11: 0
  chemotaxis, GO annotation line 6 of 11: 0
  chemotaxis, GO annotation line 7 of 11: 0
  chemotaxis, GO annotation line 8 of 11: 0
  chemotaxis, GO annotation line 9 of 11: 0
  chemotaxis, GO annotation line 10 of 11: 0
  chemotaxis, GO annotation line 11 of 11: 0
  cytokine, GO annotation line 1 of 17: 0
  cytokine, GO annotation line 2 of 17: 0
  cytokine, GO annotation line 3 of 17: 0
  cytokine, GO annotation line 4 of 17: 0
  cytokine, GO annotation line 5 of 17: 0
  cytokine, GO annotation line 6 of 17: 0
  cytokine, GO annotation line 7 of 17: 0
  cytokine, GO annotation line 8 of 17: 0
  cytokine, GO annotation line 9 of 17: 0
  cytokine, GO annotation line 10 of 17: 0
  cytokine, GO annotation line 11 of 17: 0
  cytokine, GO annotation line 12 of 17: 0
  cytokine, GO annotation line 13 of 17: 0
  cytokine, GO annotation line 14 of 17: 0
  cytokine, GO annotation line 15 of 17: 0
  cytokine, GO annotation line 16 of 17: 0
  cytokine, GO annotation line 17 of 17: 0
  defense response, GO annotation line 1 of 11: 0
  defense response, GO annotation line 2 of 11: 0
  defense response, GO annotation line 3 of 11: 0
  defense response, GO annotation line 4 of 11: 0
  defense response, GO annotation line 5 of 11: 0
  defense response, GO annotation line 6 of 11: 0
  defense response, GO annotation line 7 of 11: 0
  defense response, GO annotation line 8 of 11: 0
  defense response, GO annotation line 9 of 11: 0
  defense response, GO annotation line 10 of 11: 0
  defense response, GO annotation line 11 of 11: 0
  immune response, GO annotation line 1 of 8: 0
  immune response, GO annotation line 2 of 8: 0
  immune response, GO annotation line 3 of 8: 0
  immune response, GO annotation line 4 of 8: 0
  immune response, GO annotation line 5 of 8: 0
  immune response, GO annotation line 6 of 8: 0
  immune response, GO annotation line 7 of 8: 0
  immune response, GO annotation line 8 of 8: 0
  inflammatory response, GO annotation line 1 of 5: 0
  inflammatory response, GO annotation line 2 of 5: 0
  inflammatory response, GO annotation line 3 of 5: 0
  inflammatory response, GO annotation line 4 of 5: 0
  inflammatory response, GO annotation line 5 of 5: 0
  innate immune response, GO annotation line 1 of 6: 0
  innate immune response, GO annotation line 2 of 6: 0
  innate immune response, GO annotation line 3 of 6: 0
  innate immune response, GO annotation line 4 of 6: 0
  innate immune response, GO annotation line 5 of 6: 0
  innate immune response, GO annotation line 6 of 6: 0
  interleukin-6: interleukin-6 production: 0
  interleukin-6: positive regulation of interleukin-6 production: 0
  interleukin-6: regulation of interleukin-6 production: 0
  interleukin-12: interleukin-12 production: 0
  interleukin-12: positive regulation of interleukin-12 production: 0
  interleukin-12: regulation of interleukin-12 production: 0
  migration, GO annotation line 1 of 10: 0
  migration, GO annotation line 2 of 10: 0
  migration, GO annotation line 3 of 10: 0
  migration, GO annotation line 4 of 10: 0
  migration, GO annotation line 5 of 10: 0
  migration, GO annotation line 6 of 10: 0
  migration, GO annotation line 7 of 10: 0
  migration, GO annotation line 8 of 10: 0
  migration, GO annotation line 9 of 10: 0
  migration, GO annotation line 10 of 10: 0
  stress, GO annotation line 1 of 3: 0
  stress, GO annotation line 2 of 3: 0
  stress, GO annotation line 3 of 3: 0
  wounding, GO annotation line 1 of 3: 0
  wounding, GO annotation line 2 of 3: 0
  wounding, GO annotation line 3 of 3: 0
[1]; i.d., fold change >2
  systemic organ (LV and SP) responses after i.d. local administration: limited responses in LV and SP
Liver (LV); fold change <0.667, p<0.01, customized PA call=1
  Number of gene probes with statistically significant changes (sDEGs), LV, Down: 24
Liver (LV); fold change >1.5, p<0.01, customized PA call=1
  Number of gene probes with statistically significant changes (sDEGs), LV, Up: 9
